pIC50: −log10 of the molar value. Where two headings read alike, the source gives them in different places. Starred links: 1 amine or outer side, 2 acyl side, 3 side chain; linkers in the order of their positions; H or OH if unused. Positions of bridges follow the written chain, without caps; N, C: chain ends. Non-standard residues stand in square brackets, D forms with d. Residues, ends and D or L forms follow the SMILES beside them. Groups on a side chain read outwards from the residue. *: point of attachment. X1 = C[N+](C)(CCNC(=O)CCCCCCCCCCCCCCCCC(=O)O)CC(=O)*; Trp(6-OMe) = COc1ccc2c(C[C@H](N)C(=O)O)c[nH]c2c1; X5 = CCCCCCCCCCCCCCCC(=O)NCC[N+](C)(C)CC(=O)*; Bip = N[C@@H](Cc1ccc(-c2ccccc2)cc1)C(=O)O; C18 diacid = O=C(O)CCCCCCCCCCCCCCCCC(=O)*; Dip = N[C@H](C(=O)O)C(c1ccccc1)c1ccccc1; γGlu = O=C(O)[C@H](CCC(=O)[*:2])N[*:1]; Palmitoyl = CCCCCCCCCCCCCCCC(=O)*; NMeF = CN[C@@H](Cc1ccccc1)C(=O)O; NMeT = CN[C@H](C(=O)O)[C@@H](C)O; β3hF = N[C@H](CC(=O)O)Cc1ccccc1; NMeK = CN[C@@H](CCCCN)C(=O)O; Pen = CC(C)(S)[C@H](N)C(=O)O; αMeP = C[C@@]1(C(=O)O)CCCN1; Isovaleryl = CC(C)CC(=O)*; hCys = N[C@@H](CCS)C(=O)O; dDap = NC[C@@H](N)C(=O)O; Dap = NC[C@H](N)C(=O)O; AEEA = NCCOCCOCC(=O)O; Ahx = NCCCCCC(=O)O

In assay [1] the target is T1, ferroportin (Homo sapiens, UniProt Q9NP59).
T1 sequence (Q9NP59 1-571): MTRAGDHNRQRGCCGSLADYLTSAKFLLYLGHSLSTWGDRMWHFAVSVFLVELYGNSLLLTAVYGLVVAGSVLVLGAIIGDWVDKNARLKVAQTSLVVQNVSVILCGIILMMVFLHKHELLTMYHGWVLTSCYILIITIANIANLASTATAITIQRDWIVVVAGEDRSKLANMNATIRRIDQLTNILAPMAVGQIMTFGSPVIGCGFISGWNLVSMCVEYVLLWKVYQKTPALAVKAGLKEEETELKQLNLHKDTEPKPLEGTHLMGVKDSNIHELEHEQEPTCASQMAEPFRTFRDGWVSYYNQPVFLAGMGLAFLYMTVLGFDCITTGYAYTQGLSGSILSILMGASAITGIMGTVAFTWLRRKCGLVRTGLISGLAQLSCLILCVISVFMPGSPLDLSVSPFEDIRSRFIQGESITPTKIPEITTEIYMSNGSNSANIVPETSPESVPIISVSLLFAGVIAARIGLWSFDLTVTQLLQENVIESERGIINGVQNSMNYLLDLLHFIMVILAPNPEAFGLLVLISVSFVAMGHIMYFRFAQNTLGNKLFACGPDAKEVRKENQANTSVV
The assay is described as follows: T47D cell-based ferroportin internalization assay in presence of mouse serum albumin (MSA). The arrangement: a human breast carcinoma adherent cell line which endogenously expresses ferroportin; host or cells: T47D. The conditions noted are these: Table 6E; T47D internalization assay with MSA. How it is done:
The potency of the peptides in causing ferroportin internalization was evaluated in a T47D cell-based assay. […] In this internalization assay, the potency of the test peptides was evaluated in presence of serum albumin which is the main protein component in the blood. T47D cells were maintained in RPMI media (containing required amount of fetal bovine serum) and regularly sub-cultured. In preparation for the assay, the cells were seeded in 96-well plates at a density of 80-100 k cells per well in 100 ul volume and allowed to rest overnight. […] Sigma, A3139). The test peptide dilution series were allowed to incubate at room temperature for 30 min. Then the media was aspirated from the 96-well cell plate and test peptide dilution series were added. […] The AF647-conjugated detection peptide was previously verified to bind to ferroportin and cause its internalization. The cells were washed again after a 2 hr incubation in preparation for flow cytometry analysis. The Median Fluorescence Intensity (MFI) of the AF647-positive population was measured (after removing dead cells and non-singlets from the analysis). The MFI values were used to generate a dose-response curve and obtain IC50 potencies for the test peptides.

Assay [2] addresses T1, ferroportin. The assay is described as follows: FPN activity assay: ferroportin-GFP internalization/degradation in HEK293 cells. Type of assay: cell-based. The arrangement: expressed in transfected cells. The settings on record: read-out: FPN IC50. How it is done:
Following internalization, the ferroporin protein is degraded.
A retro inverse peptide is a peptide with a reversed sequence in all D amino acids. An example is that Hy-Glu-Thr-His-NH2 becomes Hy-DHis-DThr-DGlu-NH2. The EC50 of these reference compounds for ferroportin internalization/degradation was determined according to the FPN activity assay described above. These peptides served as control standards.

The mark [3] stands for this setting: ferroportin-GFP internalization/degradation, HEK293 cells, Table 6E.
[4] abbreviates: ferroportin-GFP HEK293 cells, at least 18 hours.

As a reminder, the pIC50 is the IC50 on a negative log10 scale, so that one unit is a factor of ten. As for `CCCCCCCCCCCCCCCC(=O)N[C@@H](CCC(=O)NCCCC[C@@H](C(=O)N[C@H](CC(=O)N[C@H](CCCCN)C(N)=O)Cc1ccccc1)N(C)C(=O)[C@@H]1CSSC[C@H](NC(=O)[C@@H]2CCCN2C(=O)[C@@H](NC(=O)[C@H](Cc2cnc[nH]2)NC(=O)[C@@H](NC(=O)[C@H](CCC(=O)O)NC(=O)CC(C)C)[C@@H](C)O)C(c2ccccc2)c2ccccc2)C(=O)N1)C(=O)O` [compound 223] (Isovaleryl-ETH[Dip]PCC[NMeK]([γGlu-Palmitoyl])[β3hF][dK]-NH2; disulfide 6-7), at ferroportin [1], the pIC50 is 8.00 to 9.00. On the same count and under the same terms, with `COC(=O)CC[C@H](NC(=O)CC(C)C)C(=O)N1CCC[C@@]1(C)C(=O)N[C@@H](Cc1c[nH]cn1)C(=O)N[C@H](C(=O)N1CCC[C@H]1C(=O)N[C@H]1CSSC[C@@H](C(=O)N(C)[C@@H](CCCCNC(=O)CCCCCNC(=O)C[N+](C)(C)CCNC(=O)CCCCCCCCCCCCCCCCC(=O)O)C(=O)N[C@H](C(=O)N[C@H](CCCCN)C(N)=O)C(c2ccccc2)c2ccccc2)NC1=O)C(c1ccccc1)c1ccccc1` [compound 145] (Isovaleryl-E(OMe)[αMeP]H[Dip]PCC[NMeK]([Ahx-X1])[Dip][dK]-NH2; disulfide 6-7) the figure was 7.00 to 8.00; with `CCCCCCCCCCCCCCCC(=O)NCC[N+](C)(C)CC(=O)NCCCC[C@@H](C(=O)N[C@H](C(=O)N(C)[C@@H](CCCCN)C(N)=O)C(c1ccccc1)c1ccccc1)N(C)C(=O)[C@@H]1CSSC[C@H](NC(=O)[C@@H]2CCCN2C(=O)[C@@H](NC(=O)[C@H](Cc2c[nH]cn2)NC(=O)[C@H]([C@@H](C)O)N(C)C(=O)[C@H](CCC(=O)OC)NC(=O)CC(C)C)C(c2ccccc2)c2ccccc2)C(=O)N1` [compound 149] (Isovaleryl-E(OMe)[NMeT]H[Dip]PCC[NMeK](X5)[Dip][NMeK]-NH2; disulfide 6-7), 7.00 to 8.00. On the same count and under the same terms, the same measure for `CCCCCCCCCCCCCCCC(=O)NCCCCCC(=O)NCCCC[C@@H](C(=O)N[C@H](C(=O)N[C@H](CN)C(N)=O)C(c1ccccc1)c1ccccc1)N(C)C(=O)[C@@H]1CSSC[C@H](NC(=O)[C@@H]2CCCN2C(=O)[C@@H](NC(=O)[C@H](Cc2cnc[nH]2)NC(=O)[C@@H](NC(=O)[C@H](CCC(=O)O)NC(=O)CC(C)C)[C@@H](C)O)C(c2ccccc2)c2ccccc2)C(=O)N1` [compound 165] (Isovaleryl-ETH[Dip]PCC[NMeK]([Ahx-Palmitoyl])[Dip][dDap]-NH2; disulfide 6-7): 8.00 to 9.00.

Turning to `COC(=O)CC[C@H](NC(=O)CC(C)C)C(=O)N[C@H](C(=O)N[C@@H](Cc1c[nH]cn1)C(=O)N[C@H](C(=O)N1CCC[C@H]1C(=O)N[C@H]1CSSC[C@@H](C(=O)N[C@H](CCCCNC(=O)CCCCCNC(=O)C[N+](C)(C)CCNC(=O)CCCCCCCCCCCCCCCCC(=O)O)C(=O)N[C@H](C(=O)N[C@H](CCCCN)C(N)=O)C(c2ccccc2)c2ccccc2)NC1=O)C(c1ccccc1)c1ccccc1)[C@@H](C)O` [compound 208] (Isovaleryl-E(OMe)TH[Dip]PCC[dK]([Ahx-X1])[Dip][dK]-NH2; disulfide 6-7), at ferroportin [1], the pIC50 is 7.00 to 8.00.

Regarding `COC(=O)CC[C@H](NC(=O)CC(C)C)C(=O)N(C)[C@H](C(=O)N[C@@H](Cc1c[nH]cn1)C(=O)N[C@H](C(=O)N1CCC[C@H]1C(=O)N[C@H]1CSSC[C@@H](C(=O)N(C)[C@@H](Cc2ccccc2)C(N)=O)NC1=O)C(c1ccccc1)c1ccccc1)[C@@H](C)O` [compound 184] (Isovaleryl-E(OMe)[NMeT]H[Dip]PCC[NMeF]-NH2; disulfide 6-7), on ferroportin [2] (Table 6E, ferroportin-GFP internalization/degradation, at least 18 hours incubation), the DC50 was > 500 nM.

For `CC(C)CC(=O)N[C@@H](CCC(=O)O)C(=O)N[C@H](C(=O)N[C@@H](Cc1ccc(-c2ccccc2)cc1)C(=O)N[C@H](C(=O)N1CCC[C@H]1C(=O)N[C@H]1CSSC[C@@H](C(=O)N(C)[C@@H](CCCCNC(=O)COCCOCCNC(=O)COCCOCCNC(=O)[C@H](CN)NC(=O)CCCCCCCCCCCCCCCCC(=O)O)C(=O)N[C@H](CC(=O)N[C@H](CCCCN)C(N)=O)Cc2ccccc2)NC1=O)C(c1ccccc1)c1ccccc1)[C@@H](C)O` [compound 297] (Isovaleryl-ET[Bip][Dip]PCC[NMeK]([AEEA-AEEA-Dap-C18 diacid])[β3hF][dK]-NH2; disulfide 6-7), at ferroportin [2] (setting [3]), the DC50 is > 500 nM. On the same count and under the same terms, with `CC(C)CC(=O)N[C@@H](CCC(=O)O)C(=O)N[C@H](C(=O)N[C@@H](Cc1c[nH]cn1)C(=O)N[C@H](C(=O)N1CCC[C@H]1C(=O)N[C@@H]1C(=O)N[C@H](C(=O)N(C)[C@@H](CCCCNC(=O)COCCOCCNC(=O)COCCOCCNC(=O)[C@H](CN)NC(=O)CCCCCCCCCCCCCCCCC(=O)O)C(=O)N[C@H](CC(=O)N[C@H](CCCCN)C(N)=O)Cc2ccccc2)CSSC1(C)C)C(c1ccccc1)c1ccccc1)[C@@H](C)O` [compound 271] (Isovaleryl-ETH[Dip]P[Pen]C[NMeK]([AEEA-AEEA-Dap-C18 diacid])[β3hF][dK]-NH2; disulfide 6-7) the figure was 10 to 100 nM; with `COc1ccc2c(C[C@H](NC(=O)[C@@H](NC(=O)[C@H](CCC(=O)O)NC(=O)CC(C)C)[C@@H](C)O)C(=O)N[C@H](C(=O)N3CCC[C@H]3C(=O)N[C@H]3CSSC[C@@H](C(=O)N(C)[C@@H](CCCCNC(=O)COCCOCCNC(=O)COCCOCCNC(=O)[C@H](CN)NC(=O)CCCCCCCCCCCCCCCCC(=O)O)C(=O)N[C@H](CC(=O)N[C@H](CCCCN)C(N)=O)Cc4ccccc4)NC3=O)C(c3ccccc3)c3ccccc3)c[nH]c2c1` [compound 287] (Isovaleryl-ET[Trp(6-OMe)][Dip]PCC[NMeK]([AEEA-AEEA-Dap-C18 diacid])[β3hF][dK]-NH2; disulfide 6-7), > 500 nM. As to `CCCCCCCCCCCCCCCC(=O)NCCCCCC(=O)NCCCC[C@H](NC(=O)[C@@H](NC(=O)[C@@H]1CCSSCC[C@H](NC(=O)CC(C)C)C(=O)N[C@@H](CCC(=O)O)C(=O)N[C@@H]([C@@H](C)O)C(=O)N[C@@H](Cc2c[nH]cn2)C(=O)N[C@@H](C(c2ccccc2)c2ccccc2)C(=O)N2CCC[C@H]2C(=O)N1)[C@@H](C)CC)C(=O)N[C@H](CC(N)=O)Cc1ccccc1` [Compd 15] (Isovaleryl-[hCys]ETH[Dip]P[hCys]IK([Ahx-Palmitoyl])[β3hF]-NH2; disulfide 1-7), the DC50 on ferroportin [2] (setting [4]) is > 500 nM. As to `CCCCCCCCCCCCCCCC(=O)NCCCCCC(=O)NCCCC[C@H](NC(=O)C[C@H](Cc1ccccc1)NC(=O)[C@@H](CCCCN)NC(=O)[C@@H](NC(=O)[C@@H]1CSSC[C@H](NC(=O)[C@@H](NC(=O)[C@H](CCC(=O)O)NC(=O)CC(C)C)[C@@H](C)O)C(=O)N[C@@H](C(c2ccccc2)c2ccccc2)C(=O)N2CCC[C@H]2C(=O)N1)[C@@H](C)CC)C(=O)N[C@H](CCCCN)C(N)=O` [Compd ID 2, Isovaleric Acid-E-T-[Cys]-[Dpa]-P-[Cys]-I-[(D)Lys]-[bhPhe]-[Lys(Ahx_Palm)]-[(D)Lys]-NH2] (Isovaleryl-ETC[Dip]PCI[dK][β3hF]K([Ahx-Palmitoyl])[dK]-NH2; disulfide 3-6), on ferroportin [2] (setting [4]), the DC50 lay within 100 to 500 nM. For `CCCCCCCCCCCCCCCC(=O)NCCCCCC(=O)NCCCC[C@H](NC(=O)C[C@H](Cc1ccccc1)NC(=O)[C@@H](CCCCN)NC(=O)[C@@H](NC(=O)[C@@H]1CSSC[C@H](NC(=O)[C@H](CCC(=O)O)NC(=O)CC(C)C)C(=O)N[C@@H](Cc2c[nH]cn2)C(=O)N[C@@H](C(c2ccccc2)c2ccccc2)C(=O)N2CCC[C@H]2C(=O)N1)[C@@H](C)CC)C(=O)N[C@H](CCCCN)C(N)=O` [compound 134] (Isovaleryl-ECH[Dip]PCI[dK][β3hF]K([Ahx-Palmitoyl])[dK]-NH2; disulfide 2-6), the DC50 on ferroportin [2] (Table 6D, ferroportin-GFP internalization/degradation, at least 18 hours incubation) is 10 to 100 nM. `CCCCCCCCCCCCCCCC(=O)NCCCCCC(=O)NCCCC[C@H](NC(=O)C[C@H](Cc1ccccc1)NC(=O)[C@@H](CCCCN)NC(=O)[C@@H](NC(=O)[C@H](C)NC(=O)[C@H]1CSSC[C@H](NC(=O)[C@H](CCC(=O)O)NC(=O)CC(C)C)C(=O)N[C@@H](Cc2c[nH]cn2)C(=O)N[C@@H](C(c2ccccc2)c2ccccc2)C(=O)N1)[C@@H](C)CC)C(=O)N[C@H](CCCCN)C(=O)N[C@@H](C)C(N)=O` [Compd 46] (Isovaleryl-ECH[Dip][dC]AI[dK][β3hF]K([Ahx-Palmitoyl])[dK]A-NH2; disulfide 2-5): the DC50 on ferroportin [2] (setting [4]) fell in the range of 1 to 10 nM.

(Values after US20250277012A1 (Protagonist Therapeutics, Inc., priority 2021, published 2025).)
